20 molecules from article PMC3314994, “Inhibitors of human histone deacetylase with potent activity against the African trypanosome Trypanosoma brucei” (Bioorganic & Medicinal Chemistry Letters, 2012) can be followed below.

The subject of assay [1] is Trypanosoma brucei (BSF). As to the kind of experiment: Growth inhibition of cultured bloodstream form T. brucei. Format: cell-based, Trypanosoma brucei (strain 427). As to conditions: Trypanosoma brucei, cultured bloodstream form, strain 427, triplicate; for IC50: read-out: Trypanosoma brucei (BSF) IC50 ± SD; for IC90: read-out: Trypanosoma brucei (BSF) IC90 ± SD. The protocol:
Treatment of parasites with micromolar levels of these inhibitors could result in cell death within 4 h (Fig. 1).
[30] Growth inhibitory properties against cultured bloodstream form T. brucei were determined as described previously.[29] Experiments were performed in triplicate and data are presented as ±SD.

The subject of assay [2] is HDAC (FDL_HELA). Kind of assay: Histone deacetylase activity in HeLa cell lysates (fluorescent assay kit). Particulars: lysed HeLa cells; read-out: HDAC (FDL_HELA) IC50 ± SD. Format: biochemical, Human. How it is done:
(§1) The compounds from the different structural subclasses were all active as HDAC inhibitors, measured in an assay of enzymes in HeLa cell lysates.[23,24] HeLa cells express multiple HDACs, including HDAC 1, 2, 3, 4, and 8.[25–27] […] To further characterise the compounds with respect to HDAC selectivity, we determined their inhibitory properties against recombinant expressed human HDACs (rhHDAC 1–4, 6–9).[28]
[24] Histone deacetylase activity was determined in lysed Human cervix epithelial cancer HeLa cells. To determine the IC50 of test compound a commercially available fluorescent assay kit was used employing an acetylated enzyme substrate.[23]

Assay [3] concerns the target rhHDAC 2 (Homo sapiens, UniProt Q92769). As to the kind of experiment: Inhibition of recombinant human HDAC isoforms. Type of assay: biochemical. As to conditions: mean ± SD, triplicate per plate, min two plates; read-out: ED50 rhHDAC 2.
Text: as §1

For assay [4], the target named is rhHDAC 3 (Homo sapiens, UniProt O15379). Kind of assay: Inhibition of recombinant human HDAC isoforms. Type of assay: biochemical. Particulars: mean ± SD, triplicate per plate, min two plates; read-out: ED50 rhHDAC 3.
Text: as §1

The target in assay [5] is T1, rhHDAC 6 (Homo sapiens, UniProt Q9UBN7).
T1 sequence (Q9UBN7 1-1215): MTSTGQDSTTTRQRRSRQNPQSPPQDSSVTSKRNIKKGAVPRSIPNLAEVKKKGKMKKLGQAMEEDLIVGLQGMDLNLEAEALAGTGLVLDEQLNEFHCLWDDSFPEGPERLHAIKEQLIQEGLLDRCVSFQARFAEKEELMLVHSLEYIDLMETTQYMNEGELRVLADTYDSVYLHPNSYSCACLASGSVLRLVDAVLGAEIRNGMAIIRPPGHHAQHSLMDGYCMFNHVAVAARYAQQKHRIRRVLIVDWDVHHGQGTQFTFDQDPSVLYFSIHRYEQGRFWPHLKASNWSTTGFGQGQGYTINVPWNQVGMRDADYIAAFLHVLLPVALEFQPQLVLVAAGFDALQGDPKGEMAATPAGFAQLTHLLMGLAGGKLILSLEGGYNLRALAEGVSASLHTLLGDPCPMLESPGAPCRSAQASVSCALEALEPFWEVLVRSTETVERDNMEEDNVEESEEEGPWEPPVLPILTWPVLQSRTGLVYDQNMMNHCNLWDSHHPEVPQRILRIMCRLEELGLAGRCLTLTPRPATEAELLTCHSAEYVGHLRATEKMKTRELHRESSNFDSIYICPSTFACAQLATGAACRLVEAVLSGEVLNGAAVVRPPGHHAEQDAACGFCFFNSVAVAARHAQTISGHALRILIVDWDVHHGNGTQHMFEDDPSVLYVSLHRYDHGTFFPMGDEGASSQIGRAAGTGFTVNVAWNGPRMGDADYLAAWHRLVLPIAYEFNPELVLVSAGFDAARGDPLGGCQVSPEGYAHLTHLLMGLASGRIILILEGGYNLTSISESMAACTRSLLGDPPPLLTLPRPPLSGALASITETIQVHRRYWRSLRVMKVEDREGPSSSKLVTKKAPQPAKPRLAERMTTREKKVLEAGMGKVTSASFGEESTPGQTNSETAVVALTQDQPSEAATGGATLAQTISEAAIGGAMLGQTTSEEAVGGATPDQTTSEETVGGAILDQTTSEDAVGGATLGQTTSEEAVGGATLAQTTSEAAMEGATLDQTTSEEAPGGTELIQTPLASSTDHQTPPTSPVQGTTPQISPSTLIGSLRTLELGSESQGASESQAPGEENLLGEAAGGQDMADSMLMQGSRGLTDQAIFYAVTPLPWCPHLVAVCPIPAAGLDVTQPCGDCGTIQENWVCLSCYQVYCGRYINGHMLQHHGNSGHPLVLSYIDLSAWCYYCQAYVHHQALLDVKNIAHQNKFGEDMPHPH
As to the kind of experiment: Inhibition of recombinant human HDAC isoforms. Type of assay: biochemical. Particulars: mean ± SD, triplicate per plate, min two plates; read-out: ED50 rhHDAC 6.
Text: as §1

The target in assay [6] is T2, rhHDAC 7 (Homo sapiens, UniProt Q8WUI4).
T2 sequence (Q8WUI4 1-952): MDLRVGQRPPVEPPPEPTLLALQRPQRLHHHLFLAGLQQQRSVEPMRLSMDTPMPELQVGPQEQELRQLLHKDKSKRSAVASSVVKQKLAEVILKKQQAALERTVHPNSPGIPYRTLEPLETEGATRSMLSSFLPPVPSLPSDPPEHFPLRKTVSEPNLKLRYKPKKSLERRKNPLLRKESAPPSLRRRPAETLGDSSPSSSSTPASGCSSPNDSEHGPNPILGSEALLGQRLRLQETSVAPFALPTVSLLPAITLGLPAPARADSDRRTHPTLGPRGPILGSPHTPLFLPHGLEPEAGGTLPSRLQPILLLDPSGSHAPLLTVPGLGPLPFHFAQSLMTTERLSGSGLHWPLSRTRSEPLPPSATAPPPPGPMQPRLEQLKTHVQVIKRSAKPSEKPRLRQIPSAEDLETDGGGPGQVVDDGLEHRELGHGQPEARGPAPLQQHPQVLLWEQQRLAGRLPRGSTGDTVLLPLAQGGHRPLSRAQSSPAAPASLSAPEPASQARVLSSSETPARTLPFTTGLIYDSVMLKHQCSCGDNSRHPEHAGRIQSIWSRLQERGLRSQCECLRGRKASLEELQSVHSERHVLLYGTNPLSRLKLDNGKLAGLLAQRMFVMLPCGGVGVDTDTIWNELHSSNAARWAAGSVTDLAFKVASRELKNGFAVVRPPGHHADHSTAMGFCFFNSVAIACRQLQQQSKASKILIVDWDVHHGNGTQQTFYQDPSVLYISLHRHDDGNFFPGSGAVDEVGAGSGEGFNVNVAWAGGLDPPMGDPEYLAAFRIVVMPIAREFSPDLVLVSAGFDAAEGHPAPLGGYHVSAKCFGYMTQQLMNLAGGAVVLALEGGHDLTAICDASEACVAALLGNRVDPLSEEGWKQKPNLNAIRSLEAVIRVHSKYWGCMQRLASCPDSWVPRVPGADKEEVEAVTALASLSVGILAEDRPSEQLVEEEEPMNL
Kind of assay: Inhibition of recombinant human HDAC isoforms. Format: biochemical. As to conditions: mean ± SD, triplicate per plate, min two plates; read-out: ED50 rhHDAC 7.
Text: as §1

The target in assay [7] is T3, rhHDAC 8 (Homo sapiens, UniProt Q9BY41).
T3 sequence (Q9BY41 1-377): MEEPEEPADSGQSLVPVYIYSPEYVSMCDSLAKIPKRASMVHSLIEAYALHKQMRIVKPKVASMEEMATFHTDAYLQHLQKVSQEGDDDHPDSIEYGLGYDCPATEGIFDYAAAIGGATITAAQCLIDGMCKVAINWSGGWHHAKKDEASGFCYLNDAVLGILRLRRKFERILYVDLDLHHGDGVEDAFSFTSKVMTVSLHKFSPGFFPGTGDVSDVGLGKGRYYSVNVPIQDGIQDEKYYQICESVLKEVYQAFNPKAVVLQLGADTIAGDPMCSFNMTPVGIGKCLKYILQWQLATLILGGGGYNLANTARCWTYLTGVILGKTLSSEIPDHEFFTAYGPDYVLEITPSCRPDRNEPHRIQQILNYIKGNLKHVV
As to the kind of experiment: Inhibition of recombinant human HDAC isoforms. Particulars: mean ± SD, triplicate per plate, min two plates; read-out: ED50 rhHDAC 8. Format: biochemical.
Text: as §1

The target of assay [8] is rhHDAC 9 (Homo sapiens, UniProt Q9UKV0). Kind of assay: Inhibition of recombinant human HDAC isoforms. As to conditions: mean ± SD, triplicate per plate, min two plates; read-out: ED50 rhHDAC 9. Type of assay: biochemical.
Text: as §1

Assay [9] concerns the target rhHDAC 1 (Homo sapiens, UniProt Q13547). Kind of assay: Inhibition of recombinant human HDAC isoforms. Format: biochemical. Particulars: mean ± SD, triplicate per plate, min two plates; read-out: ED50 rhHDAC 1.
Text: as §1

Sequence of rhHDAC 2 (Q92769 whole entry, canonical isoform): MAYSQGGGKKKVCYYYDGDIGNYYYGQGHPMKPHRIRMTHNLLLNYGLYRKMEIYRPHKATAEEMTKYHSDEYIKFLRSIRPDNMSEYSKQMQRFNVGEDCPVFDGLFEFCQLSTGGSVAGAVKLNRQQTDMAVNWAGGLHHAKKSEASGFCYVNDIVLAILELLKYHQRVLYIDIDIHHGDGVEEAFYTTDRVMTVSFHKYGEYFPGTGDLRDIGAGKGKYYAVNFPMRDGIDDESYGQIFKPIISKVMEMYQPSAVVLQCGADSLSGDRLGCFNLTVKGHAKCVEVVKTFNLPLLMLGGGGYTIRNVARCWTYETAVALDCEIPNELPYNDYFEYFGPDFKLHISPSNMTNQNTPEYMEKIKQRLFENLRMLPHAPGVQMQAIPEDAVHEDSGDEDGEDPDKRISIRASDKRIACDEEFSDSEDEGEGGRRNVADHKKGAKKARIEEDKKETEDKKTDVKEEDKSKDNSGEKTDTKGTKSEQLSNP
Sequence of rhHDAC 3 (O15379 whole entry, canonical isoform): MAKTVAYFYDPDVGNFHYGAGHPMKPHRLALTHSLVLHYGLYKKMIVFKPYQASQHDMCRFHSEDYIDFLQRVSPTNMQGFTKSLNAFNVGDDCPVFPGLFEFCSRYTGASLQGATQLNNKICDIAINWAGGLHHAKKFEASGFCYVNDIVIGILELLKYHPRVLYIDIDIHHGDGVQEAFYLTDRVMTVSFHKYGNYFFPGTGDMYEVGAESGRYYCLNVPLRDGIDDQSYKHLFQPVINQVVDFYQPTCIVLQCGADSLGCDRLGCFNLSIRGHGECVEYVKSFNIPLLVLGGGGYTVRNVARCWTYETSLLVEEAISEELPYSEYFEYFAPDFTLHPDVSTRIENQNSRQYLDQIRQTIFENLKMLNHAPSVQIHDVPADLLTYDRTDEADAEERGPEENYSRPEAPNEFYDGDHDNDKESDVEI
Sequence of rhHDAC 3 (Q9Y618 395-489 partner limits assumed): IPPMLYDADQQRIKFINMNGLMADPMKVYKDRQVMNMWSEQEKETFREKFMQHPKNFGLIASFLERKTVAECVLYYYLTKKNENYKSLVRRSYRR
Sequence of rhHDAC 9 (Q9UKV0 whole entry, canonical isoform): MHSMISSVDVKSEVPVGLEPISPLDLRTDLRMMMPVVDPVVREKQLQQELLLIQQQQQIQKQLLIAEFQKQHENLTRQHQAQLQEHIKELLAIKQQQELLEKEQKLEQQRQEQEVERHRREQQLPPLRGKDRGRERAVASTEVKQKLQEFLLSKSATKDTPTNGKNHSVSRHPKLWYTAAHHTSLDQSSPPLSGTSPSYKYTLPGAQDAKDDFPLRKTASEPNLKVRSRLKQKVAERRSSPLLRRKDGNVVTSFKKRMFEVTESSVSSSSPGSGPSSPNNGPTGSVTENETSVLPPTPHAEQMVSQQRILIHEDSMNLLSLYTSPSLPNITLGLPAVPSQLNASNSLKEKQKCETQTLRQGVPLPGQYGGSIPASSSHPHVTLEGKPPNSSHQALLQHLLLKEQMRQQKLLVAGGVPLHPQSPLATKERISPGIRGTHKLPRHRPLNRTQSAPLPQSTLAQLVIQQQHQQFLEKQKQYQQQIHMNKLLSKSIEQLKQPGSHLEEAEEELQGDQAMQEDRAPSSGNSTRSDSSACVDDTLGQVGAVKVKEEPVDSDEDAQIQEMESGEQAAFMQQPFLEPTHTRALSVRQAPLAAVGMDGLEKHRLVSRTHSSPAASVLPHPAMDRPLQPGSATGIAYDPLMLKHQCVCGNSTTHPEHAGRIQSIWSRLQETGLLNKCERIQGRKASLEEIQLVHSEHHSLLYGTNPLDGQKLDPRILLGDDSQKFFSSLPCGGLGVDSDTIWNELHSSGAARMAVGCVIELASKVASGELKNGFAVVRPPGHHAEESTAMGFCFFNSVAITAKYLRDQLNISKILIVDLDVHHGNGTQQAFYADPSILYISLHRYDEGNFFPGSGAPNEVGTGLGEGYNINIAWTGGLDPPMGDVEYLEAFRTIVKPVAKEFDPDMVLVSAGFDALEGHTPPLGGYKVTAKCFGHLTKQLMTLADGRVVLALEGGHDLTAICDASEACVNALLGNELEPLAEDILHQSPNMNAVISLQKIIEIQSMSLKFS
Sequence of rhHDAC 1 (Q13547 whole entry, canonical isoform): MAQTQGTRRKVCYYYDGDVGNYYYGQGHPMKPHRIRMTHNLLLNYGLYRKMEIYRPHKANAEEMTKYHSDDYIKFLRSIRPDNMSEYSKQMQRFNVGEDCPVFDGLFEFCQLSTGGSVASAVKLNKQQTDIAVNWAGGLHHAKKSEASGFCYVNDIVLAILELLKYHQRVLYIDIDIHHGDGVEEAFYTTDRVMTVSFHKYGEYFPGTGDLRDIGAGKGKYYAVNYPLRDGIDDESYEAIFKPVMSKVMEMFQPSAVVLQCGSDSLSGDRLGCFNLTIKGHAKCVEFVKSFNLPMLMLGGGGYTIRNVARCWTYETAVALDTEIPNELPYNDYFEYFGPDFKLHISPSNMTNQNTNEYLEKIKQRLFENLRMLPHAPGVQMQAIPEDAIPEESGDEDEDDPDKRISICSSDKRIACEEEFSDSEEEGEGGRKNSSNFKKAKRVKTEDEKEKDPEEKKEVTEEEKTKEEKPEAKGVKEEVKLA

For orientation: IC90 means the point of the concentration-response curve where the effect stands at 90%. In the case of `O=C(/C=C/c1cccc(S(=O)(=O)Nc2ccc(OC(F)(F)F)cc2)c1)NO` [Compound 5], in assay [1], the IC50 was 137 ± 7 nM and the concentration for an effect of 90% (IC90) was 220 ± 7 nM.
Regarding `CC(/C=C/c1ccccc1)=C\C(=O)NCCCCCC(=O)NO` [Compound 23], the IC50 in [1] was > 10000 nM.
`O=C(/C=C/c1ccc2ccccc2n1)NO` [Compound 16]: in assay [1], the IC50 was determined as 353 ± 16 nM and the 90% effect concentration (IC90) was determined as 648 ± 20 nM. Moreover, the IC50 in assay [2] is 22 nM.
Taken in the same sequence, the figures for `O=C(/C=C/c1cccc(S(=O)(=O)N2CCN(c3ccc(Cl)cc3)CC2)c1)NO` [Compound 2] were 64 ± 5 nM, 130 ± 5 nM and 149 ± 6 nM.
On to `O=C(/C=C/c1cccc(S(=O)(=O)N2CCN(Cc3ccc4c(c3)OCO4)CC2)c1)NO` [Compound 14], for which, in assay [1], the IC50 was 261 ± 38 nM and the 90% effect concentration (IC90) stood at 485 ± 43 nM. Besides, in assay [2], the IC50 is 269 ± 87 nM.
Regarding `O=C(/C=C/c1cccc(S(=O)(=O)N2CCN(c3ccccc3Cl)CC2)c1)NO` [Compound 7], in [1], the IC50 amounted to 154 ± 13 nM and the IC90 stood at 281 ± 19 nM. For the same molecule, the IC50 in assay [2] was determined as 68 ± 36 nM.
Consider `O=C(/C=C/c1ccc2c(c1)OCO2)NCCCCCC(=O)NO` [Compound 21], for which the IC50 in assay [1] was > 10000 nM; in assay [2], 29 ± 16 nM.
Consider `O=C(/C=C/c1cccc(S(=O)(=O)N2CCN(c3ccccc3F)CC2)c1)NO` [Compound 6], for which, in assay [1], the IC50 was 141 ± 9 nM and the IC90 turned out to be 224 ± 14 nM. Further, the IC50 in [2] worked out at 191 ± 36 nM.
Take `CN(CCCCCC(=O)NO)C(=O)/C=C/C=C/c1ccccc1` [Compound 24]: the IC50 in assay [1] is > 10000 nM.
`O=C(/C=C/c1cccc(S(=O)(=O)N2CCN(c3ccccn3)CC2)c1)NO` [Compound 3]: the IC50 in assay [1] was 86 ± 9 nM; in assay [2], 123 ± 76 nM; in assay [3] it was 55 ± 6 nM; in assay [4], 2.8 ± 0.4 nM; in assay [5] it was 179 ± 115 nM; in assay [6], 100 ± 97 nM. For the same molecule, the IC50 turned out to be 581 ± 334 nM in [7] and 86 ± 61 nM in [8]. Further, the IC90 in [1] was determined as 201 ± 5 nM.
As to `O=C(/C=C/c1cccc(S(=O)(=O)Nc2ccc(Cl)cc2)c1)NO` [Compound 17], in assay [1], the IC50 turned out to be 368 ± 23 nM and the IC90 came out at 651 ± 83 nM. The IC50 in [2] came out at 42 ± 11 nM.
Taken in the same sequence, the figures for `O=C(/C=C/c1cccc(S(=O)(=O)N2CCN(c3ccccc3)CC2)c1)NO` [Compound 11] were 167 ± 12 nM, 228 ± 2 nM and 132 ± 103 nM.
For the molecule `O=C(/C=C/c1ccccc1)NCCCCCC(=O)NO` [Compound 22], the IC50 in [1] was > 10000 nM; in [2] it was 20 ± 2 nM.
Consider `COc1ccc(NS(=O)(=O)c2cccc(/C=C/C(=O)NO)c2)cc1OC` [Compound 19], for which, in assay [1], the IC50 turned out to be 927 ± 57 nM and the concentration for an effect of 90% (IC90) was found to be 2150 ± 140 nM. In addition, the IC50 in [2] stood at 23 ± 5 nM.
Taken in the same sequence, the figures for `O=C(/C=C/c1cccc(S(=O)(=O)N2CCN(c3ncccn3)CC2)c1)NO` [Compound 1] were 34 ± 2 nM, 66 ± 4 nM and 84 ± 53 nM.
Consider `COc1ccc2nc(/C=C/C(=O)NO)ccc2c1` [Compound 9], for which the results for the IC50 in [1] and in assay [2] were 155 ± 18 nM and 28 ± 4 nM, respectively. Moreover, the concentration for an effect of 90% (IC90) in assay [1] amounted to 310 ± 40 nM.
As for `COc1cccc(NS(=O)(=O)c2cccc(/C=C/C(=O)NO)c2)c1` [Compound 13], the IC50 in [1] stood at 198 ± 21 nM; in assay [2], 22 ± 2 nM. The IC90 in [1] was found to be 333 ± 28 nM.
For `O=C(/C=C/c1cccc(S(=O)(=O)N2CCN(c3cccc(Cl)c3)CC2)c1)NO` [Compound 4], the values for the IC50 in assay [1] and in [2] were 123 ± 6 nM and 187 ± 82 nM, respectively. Moreover, the concentration for an effect of 90% (IC90) in assay [1] amounted to 169 ± 8 nM.
As to `COc1ccccc1N1CCN(S(=O)(=O)c2cccc(/C=C/C(=O)NO)c2)CC1` [Compound 12], the IC50 in assay [1] amounted to 198 ± 5 nM; in assay [2], 22 ± 2 nM; in assay [9], 53 ± 3 nM; in assay [3], 310 ± 28 nM; in [4] it was 96 ± 46 nM; in assay [5], 305 ± 19 nM. The IC50 in assay [7] came to 328 ± 193 nM; in [8], 145 ± 151 nM. Moreover, the IC90 in assay [1] stood at 265 ± 5 nM.
In the case of `O=C(/C=C/c1cccc(S(=O)(=O)Nc2ccc(OC(F)F)cc2)c1)NO` [Compound 8], the results for the IC50 in assay [1] and in assay [2] were 154 ± 13 nM and 10 ± 2 nM, respectively. Also, the IC90 in assay [1] was 306 ± 61 nM.
